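The compound was tested at five concentrations on cells cultured in 96-well plates, with a 48-hour exposure period. GI50 is the concentration that inhibits growth by half. At the TGI there is no net growth.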
Columns and labels:
Assay in all cases: inhibition of tumour cell growth, NCI panel, 48 h
[1] = system: OVCAR-3 ovarian
[2] = system: NCI-H460 lung
[3] = system: SF-268 CNS
[4] = system: HCT-116 colon
[5] = system: LOX IMVI melanoma
[6] = system: BT-549 breast
[7] = system: OVCAR-4 ovarian
[8] = system: KM12 colon
[9] = system: HOP-62 NSCLC
[10] = system: SK-OV-3 ovarian

Structure (SMILES) | GI50 [1] [µM] | TGI [1] [µM] | GI50 [2] [µM] | TGI [2] [µM] | GI50 [3] [µM] | TGI [3] [µM] | GI50 [4] [µM] | TGI [4] [µM] | GI50 [5] [µM] | TGI [5] [µM] | GI50 [6] [µM] | TGI [6] [µM] | GI50 [7] [µM] | TGI [7] [µM] | GI50 [8] [µM] | TGI [8] [µM] | GI50 [9] [µM] | TGI [9] [µM] | TGI [10] [µM] | GI50 [10] [µM]
CO/N=C1/c2cc(OC)ccc2-c2c(NOC)nc3ccccc3c21 | 49.2 | > 100 | 29.5 | > 100 | 41.6 | > 100 | 22.6 | 49.2 | 26.7 | > 100 | 21.9 | 49.6 | 27.3 | > 100 | 37.5 | > 100 | 24.6 | 39.4 | – | –
NS(=O)(=O)c1ccc(-n2nc(-c3ccc(Cl)cc3)cc2C2=CC(=O)C=CC2=O)cc1 | 22.7 | 42.9 | 24.3 | 57.4 | 24.6 | 50.4 | – | – | – | – | 22.5 | 70.8 | – | – | 16 | 36.1 | – | – | – | –
COC(=O)C1Cc2c([nH]c3ccccc23)C=N1 (configuration not stated) | – | > 100 | – | > 100 | – | > 100 | – | > 100 | – | > 100 | – | – | – | > 100 | – | > 100 | – | > 100 | > 100 | –
CC1=C(C)C(=O)C(C(C)C2=C(C)C(=O)C(C)=C(C)C2=O)=C(C)C1=O | 21 | 54 | 26.7 | > 100 | 18.7 | 49.7 | 10.8 | 24.8 | 19 | > 100 | 45.1 | > 100 | – | – | 40 | > 100 | > 100 | > 100 | > 100 | > 100
Cc1cccc(C)c1NC(=O)C(=O)C1C(=O)N(c2ccccc2)N=C1N (configuration not stated) | – | > 100 | – | > 100 | – | > 100 | – | > 100 | – | > 100 | – | – | – | > 100 | – | > 100 | – | > 100 | > 100 | –
C/C=C/C1(NS(=O)(=O)c2ccc(C)cc2)CCC(C(C)(C)C)CC1 (configuration not stated) | – | 34.9 | – | 51.5 | – | 59.5 | – | 36 | – | – | – | – | – | 48.4 | – | 39 | – | 49.7 | 81.5 | –
CCCNc1nc(-c2ccc(OC)cc2)nc2ccccc12 | 11.8 | 26.9 | 10.5 | 44 | 16.3 | 38.8 | 6.85 | 27.7 | 18.4 | 37.5 | – | – | 41 | > 100 | 14.6 | 30.8 | 14.9 | 31.2 | 53 | 18.9
CC(CN(CP(=O)([O-])[O-])CP(=O)([O-])[O-])N(CP(=O)([O-])[O-])CP(=O)([O-])[O-].N[C@@H]1CCCC[C@@H]1N.[Pt+2] (configuration not stated) | > 100 | > 100 | > 100 | > 100 | > 100 | > 100 | > 100 | > 100 | > 100 | > 100 | – | – | > 100 | > 100 | > 100 | > 100 | > 100 | > 100 | > 100 | > 100
Cc1cc(Cl)ccc1NC(=O)C1C(=O)N(c2ccc(Cl)cc2C)C(=O)/C1=N\N (configuration not stated) | – | > 100 | – | > 100 | – | 96.4 | – | > 100 | – | > 100 | – | – | – | > 100 | – | > 100 | – | > 100 | > 100 | –
